In this test the target is Tryptophan 2,3-dioxygenase (Homo sapiens, UniProt P48775). Nature of the test: Assay for TDO2 enzymatic activity determination: To measure the TDO2 activity, the procedure described in Dolusic et al. J. Med. Chem.; 2011, 54, […] was adapted: the reaction mixture contained (final concentrations) potassium phosphate buffer (50 mM, pH 7.5), ascorbic acid (0.25 M), methylene blue (0.125 μM), catalase (40 units/mL, from bovine liver, Sigma), and human recombinant TDO2 enzyme (prepared as described in Dolusic et al. J. Med. Chem.; 2011, 54, 5320-5334; 0.9 μg) without or with the compounds of the present invention at the indicated concentrations (total volume 112.5 μL). The reaction was initiated by the addition of 37.5 μL of L-Trp (final concentration 1 mM) at room temperature. The reaction was conducted at room temperature during one hour and stopped by the addition of 30 μL of 30% (w/v) trichloroacetic acid.To convert N-formylkynurenine into kynurenine, the reaction mixture was incubated at 65° C. for 30 min. Then 150 μL of the reaction mixture was mixed with 120 μL of 2.5% (w/v) 4-(dimethylamino)-benzaldehyde in acetic acid and incubated for 5 min at room temperature. Kynurenine concentrations were determined by measuring the absorbance at 480 nm. A standard curve was made with pure kynurenine. The TDO activity was measured as described above using ten serial concentrations of the compounds of the present invention. […].
Chain of Tryptophan 2,3-dioxygenase (P48775 whole entry): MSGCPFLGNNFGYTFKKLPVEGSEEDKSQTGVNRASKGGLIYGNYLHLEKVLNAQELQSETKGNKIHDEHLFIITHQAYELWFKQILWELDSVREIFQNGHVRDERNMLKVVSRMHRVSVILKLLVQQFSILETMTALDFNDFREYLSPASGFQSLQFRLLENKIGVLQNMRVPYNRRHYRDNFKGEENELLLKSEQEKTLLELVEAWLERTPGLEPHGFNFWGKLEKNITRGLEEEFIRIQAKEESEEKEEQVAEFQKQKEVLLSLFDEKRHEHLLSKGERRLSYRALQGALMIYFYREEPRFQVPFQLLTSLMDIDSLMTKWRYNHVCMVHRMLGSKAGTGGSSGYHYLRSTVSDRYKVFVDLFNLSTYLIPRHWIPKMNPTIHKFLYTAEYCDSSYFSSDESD

The structures appear in SMILES notation.

The record followed here is ChEMBL document CHEMBL5727488, “3-indol substituted derivatives, pharmaceutical compositions and methods for use” (2020).

For orientation: IC50 means the concentration needed to halve the response being measured.

As for `C[C@@H](CO)NS(=O)(=O)c1ccc(-c2c[nH]c3cc(F)ccc23)cc1`, the IC50 worked out at 0.84 µM.
